Results from ChEMBL document CHEMBL1201862, “PubChem BioAssay data set” (2004).
Active and inactive are the calls of the source.

What was measured:
Genome polyprotein = Genome polyprotein (dengue virus type 2, UniProt P29990); test: Dengue-2 NS5 methyltransferase inhibitors, primary screen, biochemical, confirmation dose response (AID 588689); type: functional
[1] = inhibitors of HIV Env-driven cell fusion, dose response, cherry-pick (AID 652057); type: functional, cell-based
[2] = ZM109 Env clade C HIV-1 fusion inhibitors, dose response, HeLa effector, CEM target cells, luciferase, cherry-pick (AID 652058); type: functional, cell-based
[3] = off-target signal loss in HeLa-CEM21 co-culture – HeLa F-luc CTL cells, cherry-picked, counter-screen for HIV-1 Env fusion inhibitor project, dose response (AID 652040); type: functional, cell-based;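 further: potency for signal decrease marking cytotoxic or nonspecific inhibition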
[4] = inhibitors of clade B AD8 Env fusion, dose response, cell-based, cherry-pick (AID 652062); type: functional;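 further: luciferase signal from cell-cell fusion driven by HIV-1 clade B AD8 Env; potency is for inhibitors of fusion seen as a drop in luminescence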
H9c2 = test: cells; type: functional, cell-based; settings: Rattus norvegicus, H9c2, Myocardium;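 further: confirmatory concentration-response retest of ultra-high-throughput screening hits for modulation of myocardial damage; cell death induced by hydrogen peroxide oxidative stress; compound pretreatment for 60 min then peroxide exposure for 2 h; potency is for protecting the cells against peroxide damage rather than for killing them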
Galanin receptor type 3 = biological target: T1, Galanin receptor type 3 (Homo sapiens, UniProt O60755); test: Fluorescence-based cell-based primary high throughput dose response assay to identify antagonists of the Galanin Receptor 3 (GalR3).; type: functional
T1 sequence (O60755 whole entry): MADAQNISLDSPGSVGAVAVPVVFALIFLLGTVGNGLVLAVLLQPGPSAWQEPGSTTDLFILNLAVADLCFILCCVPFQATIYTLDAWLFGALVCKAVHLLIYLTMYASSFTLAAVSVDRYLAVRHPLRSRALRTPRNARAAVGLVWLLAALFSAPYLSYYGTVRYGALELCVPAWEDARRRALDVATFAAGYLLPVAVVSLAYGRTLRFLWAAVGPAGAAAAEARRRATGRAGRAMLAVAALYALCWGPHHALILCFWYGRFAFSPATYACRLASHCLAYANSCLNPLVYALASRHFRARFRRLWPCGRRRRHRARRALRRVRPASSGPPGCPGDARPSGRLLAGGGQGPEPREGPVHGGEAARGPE

cells = type: functional, cell-based; settings: HEK-CNG
BJ [5] = test: cytotoxicity toward BJ-TERT fibroblasts, dose response, cell-based, RAS-independent, luminescence (AID 1933); type: functional, Homo sapiens; settings: Homo sapiens, BJ
BJ [6] = test: cells; type: functional, cell-based, Homo sapiens; settings: Homo sapiens, BJ
[7] = inhibitors of intracellular T. cruzi replication, confirmation, NIH3T3 host cells, beta-gal luminescence (AID 2044); type: functional, cell-based;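 further: intracellular parasites grown in NIH/3T3 mouse fibroblasts as host cells; luminescent beta-galactosidase reporter signal from transgenic T. cruzi replicating inside host cells; inhibitors lower the luminescence signal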
[8] = cytotoxicity toward NIH3T3 fibroblasts, dose response, counter-screen, cell-based, ATP luminescence, mouse fibroblasts (AID 2010); type: functional;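 further: cells exposed to compound for about 90 hours before reading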
BJ [9] = test: cytotoxicity toward BJ-TERT-LT-ST fibroblasts, dose response, cell-based, RAS-independent, luminescence (AID 1935); type: functional, Homo sapiens; settings: Homo sapiens, BJ;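 further: BJ fibroblasts immortalized with TERT plus LT and ST oncogenes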
[10] = cytotoxicity toward DRD oncogenic fibroblasts, dose response, cell-based, non-viral oncogenic, luminescence (AID 1934); type: functional; settings: Homo sapiens
[11] = biological target: Glucose-6-phosphate 1-dehydrogenase (Homo sapiens, UniProt P11413); test: human G6PD enzyme inhibitors, dose response, selectivity assay for P. falciparum G6PD inhibitor project, biochemical, fluorescence (AID 504792); type: functional
Chain of Glucose-6-phosphate 1-dehydrogenase (P11413 whole entry): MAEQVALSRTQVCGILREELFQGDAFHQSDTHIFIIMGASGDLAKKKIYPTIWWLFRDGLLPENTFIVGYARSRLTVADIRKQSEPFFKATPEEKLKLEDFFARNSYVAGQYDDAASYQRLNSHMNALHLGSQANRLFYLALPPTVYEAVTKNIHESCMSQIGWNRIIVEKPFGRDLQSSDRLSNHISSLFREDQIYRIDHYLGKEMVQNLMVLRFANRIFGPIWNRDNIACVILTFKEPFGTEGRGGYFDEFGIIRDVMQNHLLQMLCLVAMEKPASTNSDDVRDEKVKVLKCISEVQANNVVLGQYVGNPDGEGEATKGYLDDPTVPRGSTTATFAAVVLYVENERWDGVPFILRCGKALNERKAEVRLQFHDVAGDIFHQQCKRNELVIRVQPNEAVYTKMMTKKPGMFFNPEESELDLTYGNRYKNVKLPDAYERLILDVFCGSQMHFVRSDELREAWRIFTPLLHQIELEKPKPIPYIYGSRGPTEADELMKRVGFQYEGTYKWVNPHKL

[12] = biological target: T2, Heat shock factor protein 1 (Mus musculus, UniProt P38532); test: HSF1 potentiators in luciferase reporter cells, confirmation, cell-based, NIH3T3, luminescence, dose retest (AID 435004); type: functional;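 further: stress induced by proteasome inhibitor MG132 added 30 min after compound; luciferase reporter driven by HSF1 response element in NIH3T3 cells; actives raise luminescence as potentiators of the MG132 stress response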
T2 sequence (P38532 whole entry): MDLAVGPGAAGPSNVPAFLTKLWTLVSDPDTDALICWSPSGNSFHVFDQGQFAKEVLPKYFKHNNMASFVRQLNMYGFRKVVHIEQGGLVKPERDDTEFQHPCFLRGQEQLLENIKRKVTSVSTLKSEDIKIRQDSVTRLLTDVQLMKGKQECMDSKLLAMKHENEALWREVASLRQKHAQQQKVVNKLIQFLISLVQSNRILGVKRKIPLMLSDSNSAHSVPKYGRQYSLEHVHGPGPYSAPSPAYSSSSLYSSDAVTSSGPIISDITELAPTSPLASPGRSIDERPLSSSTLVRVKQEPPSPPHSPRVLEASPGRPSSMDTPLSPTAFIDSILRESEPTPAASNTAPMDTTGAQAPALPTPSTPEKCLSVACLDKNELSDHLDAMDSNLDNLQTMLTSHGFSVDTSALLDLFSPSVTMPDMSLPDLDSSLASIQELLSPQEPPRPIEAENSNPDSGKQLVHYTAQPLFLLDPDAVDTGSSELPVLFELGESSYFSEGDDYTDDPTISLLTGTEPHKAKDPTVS

[13] = biological target: T3, Replicative DNA helicase DnaB (Mycobacterium tuberculosis, UniProt P9WMR3); test: DnaB intein splicing inhibitors, dose response, biochemical, cell-free fluorescence (AID 449749); type: functional
T3 sequence (P9WMR3 whole entry): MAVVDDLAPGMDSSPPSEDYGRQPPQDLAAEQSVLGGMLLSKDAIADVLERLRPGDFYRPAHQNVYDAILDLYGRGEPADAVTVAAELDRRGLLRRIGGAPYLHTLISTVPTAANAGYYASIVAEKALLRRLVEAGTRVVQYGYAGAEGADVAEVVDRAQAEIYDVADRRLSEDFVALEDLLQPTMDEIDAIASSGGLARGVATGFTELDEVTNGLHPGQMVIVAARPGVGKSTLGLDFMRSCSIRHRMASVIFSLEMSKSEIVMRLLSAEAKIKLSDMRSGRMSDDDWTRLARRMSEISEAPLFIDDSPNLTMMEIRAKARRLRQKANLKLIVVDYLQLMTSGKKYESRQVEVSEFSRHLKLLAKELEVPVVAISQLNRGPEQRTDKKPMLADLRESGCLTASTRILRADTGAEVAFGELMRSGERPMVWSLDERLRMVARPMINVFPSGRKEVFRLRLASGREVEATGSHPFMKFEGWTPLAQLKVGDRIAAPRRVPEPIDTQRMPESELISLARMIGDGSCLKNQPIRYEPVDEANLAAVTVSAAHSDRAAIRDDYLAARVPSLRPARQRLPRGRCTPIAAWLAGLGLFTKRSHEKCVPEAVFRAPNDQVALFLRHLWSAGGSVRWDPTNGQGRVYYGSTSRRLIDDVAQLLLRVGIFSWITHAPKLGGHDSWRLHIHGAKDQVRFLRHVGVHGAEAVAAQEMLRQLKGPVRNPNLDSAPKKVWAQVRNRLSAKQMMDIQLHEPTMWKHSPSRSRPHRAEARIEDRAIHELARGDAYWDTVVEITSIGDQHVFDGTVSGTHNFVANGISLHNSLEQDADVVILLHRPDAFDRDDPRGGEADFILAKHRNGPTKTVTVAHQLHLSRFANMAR

Protein RecA = biological target: T4, Protein RecA (Mycobacterium tuberculosis, UniProt P9WHJ3); test: Fluorescence Cell-Free Homogeneous Dose Retest to Identify Inhibitors of RecA-Intein Splicing Activity. [Related pubchem assays (depositor defined):AID2097, AID2223, AID489010, AID492950]; type: functional
T4 sequence (P9WHJ3 whole entry): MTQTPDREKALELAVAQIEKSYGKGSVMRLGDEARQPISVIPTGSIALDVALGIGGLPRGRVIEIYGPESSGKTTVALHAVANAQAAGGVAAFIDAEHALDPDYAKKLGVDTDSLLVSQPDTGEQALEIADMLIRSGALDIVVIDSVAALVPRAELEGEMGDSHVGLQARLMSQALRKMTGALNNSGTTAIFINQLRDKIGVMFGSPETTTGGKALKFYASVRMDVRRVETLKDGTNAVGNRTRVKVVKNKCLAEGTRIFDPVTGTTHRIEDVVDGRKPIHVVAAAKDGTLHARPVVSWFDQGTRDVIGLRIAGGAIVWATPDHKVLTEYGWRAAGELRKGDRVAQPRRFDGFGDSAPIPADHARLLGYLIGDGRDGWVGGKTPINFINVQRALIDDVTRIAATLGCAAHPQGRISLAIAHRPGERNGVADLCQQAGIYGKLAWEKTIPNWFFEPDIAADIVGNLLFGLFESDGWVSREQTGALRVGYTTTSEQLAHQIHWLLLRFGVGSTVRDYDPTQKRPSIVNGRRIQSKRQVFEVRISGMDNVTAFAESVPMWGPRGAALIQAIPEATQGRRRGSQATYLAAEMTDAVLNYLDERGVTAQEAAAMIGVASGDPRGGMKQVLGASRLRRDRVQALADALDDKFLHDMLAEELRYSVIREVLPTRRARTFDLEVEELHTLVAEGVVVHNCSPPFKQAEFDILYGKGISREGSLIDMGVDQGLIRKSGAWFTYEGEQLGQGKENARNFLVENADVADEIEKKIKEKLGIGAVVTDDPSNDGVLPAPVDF

Chain of Genome polyprotein (P29990 2492-3391 limits assumed): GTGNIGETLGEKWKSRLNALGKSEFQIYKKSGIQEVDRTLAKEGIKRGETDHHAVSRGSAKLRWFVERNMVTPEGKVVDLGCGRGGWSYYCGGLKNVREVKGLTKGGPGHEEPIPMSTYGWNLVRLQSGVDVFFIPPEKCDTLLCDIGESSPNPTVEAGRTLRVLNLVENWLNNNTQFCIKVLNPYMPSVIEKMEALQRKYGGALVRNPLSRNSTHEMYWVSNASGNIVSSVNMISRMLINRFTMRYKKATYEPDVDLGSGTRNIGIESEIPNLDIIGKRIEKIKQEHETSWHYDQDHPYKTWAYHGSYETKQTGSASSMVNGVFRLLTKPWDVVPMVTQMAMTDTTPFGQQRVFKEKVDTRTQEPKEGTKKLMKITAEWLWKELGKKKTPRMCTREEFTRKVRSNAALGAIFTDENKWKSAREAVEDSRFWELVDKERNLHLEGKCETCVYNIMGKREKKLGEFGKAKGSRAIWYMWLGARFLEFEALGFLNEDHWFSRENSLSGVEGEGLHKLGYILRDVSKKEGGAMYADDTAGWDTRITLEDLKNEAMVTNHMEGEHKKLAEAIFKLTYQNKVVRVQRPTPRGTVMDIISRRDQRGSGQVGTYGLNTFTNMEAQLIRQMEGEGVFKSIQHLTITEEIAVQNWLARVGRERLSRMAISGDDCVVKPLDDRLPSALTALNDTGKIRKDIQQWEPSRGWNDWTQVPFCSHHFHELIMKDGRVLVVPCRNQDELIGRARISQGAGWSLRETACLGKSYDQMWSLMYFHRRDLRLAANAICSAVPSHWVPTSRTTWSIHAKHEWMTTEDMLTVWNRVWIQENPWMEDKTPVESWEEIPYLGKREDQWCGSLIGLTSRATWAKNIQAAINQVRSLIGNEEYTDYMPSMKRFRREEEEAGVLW

O=C(O)CN1C(=O)/C(=C\c2cccc(OCc3ccccc3F)c2)SC1=S
IC50 (Genome polyprotein): 38.2 µM (active)

COc1ccc2nc(O)c(CN(Cc3cccs3)Cc3nnnn3Cc3ccccc3)cc2c1
AC50 [1]: 3.01 µM (active) | AC50 [2]: 5.4 µM (active) | AC50 [3]: 4.44 µM (active) | AC50 [4]: 4.94 µM (active)

COc1cccc(Cn2nc(C(=O)O)c3ccccc3c2=O)c1
IC50 (H9c2): > 79 µM (inactive) | IC50 (Galanin receptor type 3): > 29.9 µM (inactive) | EC50 (cells): > 29.9 µM (inactive)

O=C(COC(=O)c1ccc2c(c1[N+](=O)[O-])C(=O)c1ccccc1C2=O)NC1CC1
EC50 (BJ [5]): > 150 µM (not active) | EC50 (BJ [6]): > 150 µM (not active) | EC50 [7]: 4.65 µM (active) | EC50 [8]: 9.54 µM (active) | EC50 (BJ [9]): > 150 µM (not active) | EC50 [10]: > 150 µM (not active) | IC50 [11]: > 80 µM (inactive) | EC50 [12]: 17 µM (active) | AC50 [13]: 3.81 µM (active) | EC50 (Protein RecA): 0.238 µM (active)

CC1(C)CC(=O)C(=Cc2cn(CCC#N)nc2-c2ccc(F)cc2)C(=O)C1
IC50 (Genome polyprotein): 52.8 µM (active)
